Key:
[1] = tested on: keratinocytes (HaCat line); assay: Proliferation of keratinocytes (Cyquant, Nile red, XTT markers); type: cell-based
Description: The keratinocytes (HaCat line) are cultured under two conditions: whole defined culture medium (standard condition) and culture medium deficient in growth factors. This deficient medium gives rise to a controlled delay in cell proliferation. Under these conditions, it is then possible to measure the effects of compounds capable of compensating for the deficiency in growth factors of the culture medium and thus of relaunching the cell multiplication and/or of stimulating cell metabolism.
The keratinocyte proliferation is measured by means of three markers on the same cell population: the level of DNA, which is proportional to the number of cells (Cyquant probe), the level of constituent polar lipids of cell membranes (Nile red probe) and the mitochondrial respiration, which reflects the general cell metabolism (XTT probe).

[2] = tested on: dermal fibroblasts of the reconstructed skin; assay: Proliferation of fibroblasts in whole reconstructed skin (propidium iodide nuclei count); type: cell-based, human; conditions: 5 mM; within 48 hours of treatment
Description: Rhamnose was studied on a model of whole reconstructed skin in order to measure its anti-ageing efficacy on the dermal compartment.
Briefly, the model of reconstructed skin used is that described by Bell et al. (Bell E. et al., The reconstitution of living skin, J. Invest. Dermatol., 1983, July; 81): it includes a dermal equivalent on which is reconstructed a multistratified epidermis; the dermal equivalent is manufactured from acid-soluble collagen, culture medium containing serum and normal adult human fibroblasts. After 5 days of shrinkage, this equivalent is inoculated with keratinocytes and then cultured for 6 days in immersion and for 7 days in emersion in order to obtain a multistratified and differentiated epidermis having a horny layer.
The reconstructed skin is treated with 5 mM rhamnose for 2 days and 5 days in the culture medium; after the treatment, the reconstructed skins are included in Tissue Tek in order to produce frozen sections 7 μm thick with a cryostat. […] Three frozen sections are prepared at random on each reconstructed skin; on each section, two microscopic fields (25× objective lens) are analysed by fluorescence microscopy and photographed. The dermal fibroblasts are thus counted for each reconstructed skin on six images in total representing the six microscopic fields considered. […]

type I procollagen = assay: Synthesis of procollagen 1 in reconstructed skin (indirect immunofluorescence); type: cell-based, human; conditions: for procollagen 1 synthesis: reconstructed skin
Description: Conventional detection via indirect immunofluorescence of type I procollagen in the dermis of the reconstructed skin was also performed on other series of frozen sections (anti-procoll 1 antibody (MAB 1912 Millipore)+FTIC-coupled conjugate (112-095-068 Jackson Immunoresearch)). In order to obtain bearings within the cutaneous architecture during the microscopic examination of the sections, the cell nuclei of the keratinocytes and fibroblasts are localized by staining them with propidium iodide, as described above. Three frozen sections are prepared at random on each reconstructed skin and on each section, and two microscopic fields (25× objective lens) are analysed by fluorescence microscopy and photographed. The levels of fluorescence proportional to the amount of type I procollagen are compared between the control skin and the skin treated with rhamnose.

For `C[C@H](O)[C@H](O)[C@@H](O)[C@@H](O)C=O` [rhamnose, L-rhamnose], which keratinocyte proliferation ([1]; keratinocytes cultured in medium depleted in growth factors) is on record?
The keratinocyte proliferation was “activate keratinocyte proliferation”.

What about the “number of cells compared with an untreated control” value ([1]; medium depleted in growth factor) of the same molecule?
The value was “higher number of cells”.

What about the “growth of the dermal fibroblasts” value [2] of the same molecule?
The value was “stimulation of growth”.

What about the “green fluorescence (proportional to the amount of type I procollagen) vs control skin” value (type I procollagen; 1 mM, 120 hours) of the same molecule?
The value was “marked increase”.

What about the “synthesis of type I procollagen by the fibroblasts” value (type I procollagen; 1 mM, 120 hours) of the same molecule?
The value was “greatly stimulated”.

What about the “procollagen 1 synthesis” value (type I procollagen; 1 mM) of the same molecule?
Its value is “stimulation of procollagen 1 synthesis”.

What about the “procollagen 1 synthesis” value (type I procollagen; 5 mM) of the same molecule?
The value was “stimulation of procollagen 1 synthesis”.

Source: patent publication US20100168049A1, “COMBINATION OF MONOSACCHARIDES AND ADENOSINE AND USE THEREOF” (L'OREAL, priority 2008, published 2010)
